{"source": "ChEMBL document CHEMBL1268964", "about": "“CWJ-081, a novel 3-arylisoquinoline derivative, induces apoptosis in human leukemia HL-60 cells partially involves reactive oxygen species through c-Jun NH2-terminal kinase pathway” (Bioorg Med Chem Lett, 2010)", "key": {"[1]": {"tested_on": "HL-60", "experiment": "Induction of apoptosis in human HL60 cells assessed as early apoptotic cells at 10 uM by Annexin V staining", "type": "functional, cell-based", "details": "TDE = time-dependent effect"}, "[2]": {"tested_on": "K562", "experiment": "Cytotoxicity against human K562 cells by MTT assay", "type": "functional, cell-based"}, "[3]": {"tested_on": "HL-60", "experiment": "Induction of apoptosis in NAC pretreated human HL60 cells assessed as increase in JNK phosphorylation level", "type": "functional, cell-based"}, "[4]": {"tested_on": "U-937", "experiment": "Induction of apoptosis in human U937 cells assessed as intercucleosomal DNA fragmentation at 10 uM by […] staining by flow cytometry", "type": "functional, cell-based", "details": "TDE = time-dependent effect"}, "[5]": {"tested_on": "HL-60", "experiment": "Cytotoxicity against human HL60 cells by MTT assay", "type": "functional, cell-based"}, "[6]": {"experiment": "Cytotoxicity against human L-132 cells by MTT assay", "type": "cell-based", "details": "L132"}, "[7]": {"experiment": "Cytotoxicity against human Chang cells by MTT assay", "type": "cell-based"}, "[8]": {"tested_on": "U-937", "experiment": "Induction of apoptosis in human U937 cells assessed as early apoptotic cells at 10 uM by Annexin V staining", "type": "functional, cell-based", "details": "TDE = time-dependent effect"}, "[9]": {"experiment": "Cytotoxicity against human IOSE-80PC cells by MTT assay", "type": "cell-based"}, "[10]": {"tested_on": "HL-60", "experiment": "Induction of apoptosis in human HL60 cells assessed as loss of mitochondrial membrane potential at 50 uM after 24 hrs by DiOC6 staining", "type": "functional, cell-based"}, "[11]": {"tested_on": "HL-60", "experiment": "Induction of apoptosis in human HL60 cells assessed as procaspase 3 cleavage at 10 uM after 36 hrs by Western blot analysis", "type": "functional, cell-based"}, "[12]": {"tested_on": "HeLa", "experiment": "Cytotoxicity against human HeLa cells by MTT assay", "type": "functional, cell-based"}, "[13]": {"tested_on": "HL-60", "experiment": "Induction of apoptosis in human HL60 cells assessed as cytochrome c release from mitochondria at 10 uM after 24 hrs by Western blot analysis", "type": "functional, cell-based"}, "[14]": {"tested_on": "HL-60", "experiment": "Induction of apoptosis in human HL60 cells assessed as intercucleosomal DNA fragmentation at 10 uM by […] staining by flow cytometry", "type": "functional, cell-based", "details": "TDE = time-dependent effect"}, "[15]": {"tested_on": "HL-60", "experiment": "Induction of apoptosis in human HL60 cells assessed as procaspase 8 cleavage at 10 uM after 36 hrs by Western blot analysis", "type": "functional, cell-based"}, "[16]": {"tested_on": "HL-60", "experiment": "Induction of apoptosis in human HL60 cells assessed as PARP-1 at 10 uM after 36 hrs by Western blot analysis", "type": "functional, cell-based"}, "[17]": {"tested_on": "HL-60", "experiment": "Induction of apoptosis in human HL60 cells assessed as increase in ROS production in presence of 10 mM NAC", "type": "functional, cell-based"}, "[18]": {"tested_on": "U-937", "experiment": "Cytotoxicity against human U937 cells by MTT assay", "type": "functional, cell-based"}, "[19]": {"tested_on": "HL-60", "experiment": "Induction of apoptosis in human HL60 cells assessed as cytochrome c release from mitochondria at 10 uM after 12 hrs by Western blot analysis", "type": "functional, cell-based"}, "[20]": {"tested_on": "HL-60", "experiment": "Induction of apoptosis in human HL60 cells assessed as Bax protein expression at 10 uM after 12 hrs by Western blot analysis", "type": "functional, cell-based"}, "[21]": {"tested_on": "Ca-Ski", "experiment": "Cytotoxicity against human CaSki cells by MTT assay", "type": "functional, cell-based"}, "[22]": {"tested_on": "HL-60", "experiment": "Induction of apoptosis in human HL60 cells assessed as increase in JNK phosphorylation level at 12 hrs", "type": "functional, cell-based"}, "[23]": {"tested_on": "K562", "experiment": "Induction of apoptosis in human K562 cells assessed as early apoptotic cells at 10 uM by Annexin V staining", "type": "functional, cell-based", "details": "TDE = time-dependent effect"}, "[24]": {"tested_on": "HL-60", "experiment": "Induction of apoptosis in human HL60 cells assessed as Bcl-2 family expression at 10 uM by Western blot analysis", "type": "functional, cell-based", "details": "TDE = time-dependent effect"}, "[25]": {"tested_on": "K562", "experiment": "Induction of apoptosis in human K562 cells assessed as intercucleosomal DNA fragmentation at 10 uM by […] staining by flow cytometry", "type": "functional, cell-based", "details": "TDE = time-dependent effect"}, "[26]": {"tested_on": "HL-60", "experiment": "Induction of apoptosis in human HL60 cells assessed as procaspase 9 cleavage at 10 uM after 36 hrs by Western blot analysis", "type": "functional, cell-based"}, "[27]": {"tested_on": "HL-60", "experiment": "Induction of apoptosis in human HL60 cells assessed as Bcl-2 protein expression at 10 uM after 12 hrs by Western blot analysis", "type": "functional, cell-based"}, "[28]": {"tested_on": "HL-60", "experiment": "Induction of apoptosis in human HL60 cells assessed as increase in ROS production", "type": "functional, cell-based", "details": "TDE = time-dependent effect"}, "[29]": {"tested_on": "HL-60", "experiment": "Induction of apoptosis in human HL60 cells in presence of 10 uM SP600125 JNK inhibitor", "type": "functional, cell-based"}, "[30]": {"tested_on": "HL-60", "experiment": "Induction of apoptosis in NAC pretreated human HL60 cells assessed as increase in ROS production", "type": "functional, cell-based"}, "[31]": {"tested_on": "HL-60", "experiment": "Induction of apoptosis in human HL60 cells assessed as increase in JNK phosphorylation level at 6 hrs", "type": "functional, cell-based"}}, "note": "Activity calls are given as the source filed them. The calls are words filed in the database; no cut-off is given here."}
{"smiles": "CCc1cc2c(cc1-c1cc3ccc(OC)c(OC)c3c(=O)n1C)OCO2", "values": [{"measurement": "Activity", "setting": "[1]", "result": "tde"}, {"measurement": "IC50", "setting": "[2]", "result": 38.1, "unit": "µM"}, {"measurement": "Activity", "setting": "[3]", "result": "inactive"}, {"measurement": "Activity", "setting": "[4]", "result": "tde"}, {"measurement": "IC50", "setting": "[5]", "result": 5.62, "unit": "µM"}, {"measurement": "IC50", "setting": "[6]", "result": 59.4, "unit": "µM"}, {"measurement": "IC50", "setting": "[7]", "result": 39.9, "unit": "µM"}, {"measurement": "Activity", "setting": "[8]", "result": "tde"}, {"measurement": "IC50", "setting": "[9]", "result": 68, "unit": "µM"}, {"measurement": "Activity", "setting": "[10]", "result": "Active"}, {"measurement": "Activity", "setting": "[11]", "result": "Active"}, {"measurement": "IC50", "setting": "[12]", "result": 42.2, "unit": "µM"}, {"measurement": "Activity", "setting": "[13]", "result": "Active"}, {"measurement": "Activity", "setting": "[14]", "result": "tde"}, {"measurement": "Activity", "setting": "[15]", "result": "Active"}, {"measurement": "Activity", "setting": "[16]", "result": "Active"}, {"measurement": "Activity", "setting": "[17]", "result": "inactive"}, {"measurement": "IC50", "setting": "[18]", "result": 33.2, "unit": "µM"}, {"measurement": "Activity", "setting": "[19]", "result": "Active"}, {"measurement": "Activity", "setting": "[20]", "result": "Active"}, {"measurement": "IC50", "setting": "[21]", "result": 47.3, "unit": "µM"}, {"measurement": "Activity", "setting": "[22]", "result": "inactive"}, {"measurement": "Activity", "setting": "[23]", "result": "tde"}, {"measurement": "Activity", "setting": "[24]", "result": "tde"}, {"measurement": "Activity", "setting": "[25]", "result": "tde"}, {"measurement": "Activity", "setting": "[26]", "result": "Active"}, {"measurement": "Activity", "setting": "[27]", "result": "Active"}, {"measurement": "Activity", "setting": "[28]", "result": "tde"}, {"measurement": "Activity", "setting": "[29]", "result": "Active"}, {"measurement": "Activity", "setting": "[30]", "result": "inactive"}, {"measurement": "Activity", "setting": "[31]", "result": "Active"}]}
